From US10618903B2, “Heteroaryl substituted aminopyridine compounds” (BRISTOL-MYERS SQUIBB COMPANY, priority 2015, dated 2020)

What was measured:
IRAK4 = IRAK4 (Homo sapiens (Human), UniProt Q9NWZ3); assay: IRAK4 Inhibition Assay; type: biochemical; conditions: ATP 500 μM; IRAK4 0.6 nM
Summary of the method: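 Mobility-shift kinase assay: 0.6 nM IRAK4, 500 μM ATP, 1.5 μM fluorescent peptide, 60 min, room temperature. Percent inhibition was normalised between enzyme-free and DMSO-only wells.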

Caco Permeability Assay = type: in vitro ADME; conditions: human, Caco-2, Caco-2 cells, 3 μM compound
Experimental: Thirteen to 27 days prior to assay, Caco-2 cells were seeded onto collagen-coated polycarbonate filter membranes in 24-well transwell plates at a density of 1.45×10^5 cells/cm^2, approximately 4.8×10^4 cells per well. The cells were grown in a culture medium consisting of DMEM supplemented with 10% fetal bovine serum, 10 mM HEPES, 1% nonessential amino acids, 2 mM L-glutamine, 100 U/mL penicillin-G, and 100 μg/mL streptomycin. The culture medium was replaced every 3 days and the cells were maintained at 37° C. in a 95% relative humidity and 5% CO2 atmosphere. The cells were evaluated for tight junction formation just prior to assay. The test compound was solubilized to 10 mM in 100% DMSO and diluted to 3 μM in assay buffer. Permeability studies were initiated by adding 200 μL assay buffer plus/minus compound to the apical transwell compartment and 600 μL assay buffer plus/minus compound to the basolateral compartment of the 24-well transwell low-binding cluster plate. For apical-to-basolateral (A to B) permeability (absorptive direction), buffer containing compound was placed in the apical compartment (donor wells), while buffer alone was placed in the corresponding basolateral compartments (receiver wells). For basolateral-to-apical (B to A) permeability (secretive direction), buffer containing compound was placed in the basolateral compartment (donor wells), while buffer alone was placed in the corresponding apical compartments (receiver wells). Transwells were then incubated for 2 hours at 37° C. in a 95% relative humidity and 5% CO2 atmosphere with gentle agitation. Following incubation, 100 μL was removed from each apical and basolateral compartment and transferred to 96-well low binding plates that had been previously loaded with 100 µL/well of acetonitrile containing 250 nM propranolol, 250 nM diclofenac, and 500 nM tolbutamide as internal standards. The samples were subsequently analyzed by LC-MS/MS to determine concentrations of compound.

[1] = test system: IL-6 levels in human whole blood stimulated with a TLR2 agonist; assay: IRAK4 Whole Blood Assay (lipoteichoic acid/TLR2-stimulated IL-6); type: cell-based; conditions: lipoteichoic acid 10 μg/mL, IL-6 readout
Summary of the method: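 IL-6 was quantified by cytometric bead assay in supernatants of human blood (ACD-A) stimulated for 5 h with lipoteichoic acid at 10 μg/mL final. Compound exposure preceded stimulation for 60 min at 37 °C, 5% CO2.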

Chain of IRAK4 (Q9NWZ3 whole entry): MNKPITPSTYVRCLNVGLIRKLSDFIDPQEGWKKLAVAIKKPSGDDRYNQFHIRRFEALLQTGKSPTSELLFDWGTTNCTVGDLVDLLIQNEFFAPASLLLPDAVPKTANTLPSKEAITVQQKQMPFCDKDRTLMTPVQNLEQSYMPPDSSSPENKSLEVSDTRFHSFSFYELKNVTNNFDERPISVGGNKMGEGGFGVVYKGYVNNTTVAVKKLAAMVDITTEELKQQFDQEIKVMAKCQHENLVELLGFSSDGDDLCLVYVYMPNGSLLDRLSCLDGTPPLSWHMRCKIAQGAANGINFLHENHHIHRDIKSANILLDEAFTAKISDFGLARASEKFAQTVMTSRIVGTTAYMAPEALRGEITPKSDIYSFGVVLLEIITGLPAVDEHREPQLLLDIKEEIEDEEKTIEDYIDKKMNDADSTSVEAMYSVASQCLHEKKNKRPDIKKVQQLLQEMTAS

CC(C)OC1CC(Nc2cc(-c3cnn4cc(Cl)cnc34)ncc2C(=O)NC[C@@H](F)C(C)(C)O)CC1(F)F (single isomer, unassigned) [Example 15]
IC50 (IRAK4): 4 nM | Papp at 2 h, 3 µM (Caco Permeability Assay): 6.5 ×10⁻⁶ cm/s | EC50 ([1]; Homo sapiens): 660 nM

CC(C)(O)[C@H](F)CNC(=O)c1cnc(-c2cnn3cc(Cl)cnc23)cc1NC1COCC1(F)F (single isomer, unassigned) [Example 19]
IC50 (IRAK4): 3 nM | Papp at 2 h, 3 µM (Caco Permeability Assay): 4.9 ×10⁻⁶ cm/s | EC50 [1]: 620 nM

CC(C)Nc1cc(-c2cnn3cc(Cl)cnc23)ncc1C(=O)NC[C@@H](F)C(C)(C)O [Example 1, (R)-6-(6-chloropyrazolo[1,5-a]pyrimidin-3-yl)-N-(2-fluoro-3-hydroxy-3-methylbutyl)-4-(isopropylamino)nicotinamide]
IC50 (IRAK4): 3 nM | Papp at 2 h, 3 µM (Caco Permeability Assay): 24.8 ×10⁻⁶ cm/s | EC50 ([1]; Homo sapiens): 400 nM

CC(C)(O)c1cnc(Nc2cc(-c3cnn4cc(Cl)cnc34)ncc2C(=O)NC[C@@H](F)C(C)(C)O)s1 [Example 2, (R)-6-(6-chloropyrazolo[1,5-a]pyrimidin-3-yl)-N-(2-fluoro-3-hydroxy-3-methylbutyl)-4-((5-(2-hydroxypropan-2-yl)thiazol-2-yl)amino)nicotinamide]
IC50 (IRAK4): 8 nM | Papp at 2 h, 3 µM (Caco Permeability Assay): < 1.5 ×10⁻⁶ cm/s | EC50 ([1]; Homo sapiens): 880 nM

CC(C)(O)[C@H](F)CNC(=O)c1cnc(-c2cnn3cc(Cl)cnc23)cc1NC1COC1 [Example 5, (R)-6-(6-chloropyrazolo[1,5-a]pyrimidin-3-yl)-N-(2-fluoro-3-hydroxy-3-methylbutyl)-4-(oxetan-3-ylamino)nicotinamide]
IC50 (IRAK4): 3 nM | Papp at 2 h, 3 µM (Caco Permeability Assay): 17.5 ×10⁻⁶ cm/s | EC50 ([1]; Homo sapiens): 100 nM

CC(C)(O)[C@H](F)CNC(=O)c1cnc(-c2cnn3cc(Cl)cnc23)cc1NC1CC1 [Example 22, (R)-6-(6-chloropyrazolo[1,5-a]pyrimidin-3-yl)-4-(cyclopropylamino)-N-(2-fluoro-3-hydroxy-3-methylbutyl)nicotinamide]
IC50 (IRAK4): 2 nM | Papp at 2 h, 3 µM (Caco Permeability Assay): 16.2 ×10⁻⁶ cm/s | EC50 ([1]; Homo sapiens): 11100 nM

CC(=O)N[C@H]1CC[C@H](NC(=O)c2cnc(-c3cnn4cc(Cl)cnc34)cc2NC(C)C)CC1 [Example 23, N-((1r,4r)-4-acetamidocyclohexyl)-6-(6-chloropyrazolo[1,5-a]pyrimidin-3-yl)-4-(isopropylamino) nicotinamide]
IC50 (IRAK4): 10 nM | Papp at 2 h, 3 µM (Caco Permeability Assay): 1.8 ×10⁻⁶ cm/s | EC50 ([1]; Homo sapiens): 720 nM

CC(C)(O)[C@H](F)CNC(=O)c1cnc(-c2cnn3cc(Cl)cnc23)cc1NC1CCOCC1 [Example 30, (R)-6-(6-chloropyrazolo[1,5-a]pyrimidin-3-yl)-N-(2-fluoro-3-hydroxy-3-methylbutyl)-4-((tetrahydro-2H-pyran-4-yl)amino)nicotinamide]
IC50 (IRAK4): 4 nM | Papp at 2 h, 3 µM (Caco Permeability Assay): 14.2 ×10⁻⁶ cm/s | EC50 ([1]; Homo sapiens): 380 nM

CC(=O)N[C@H]1CC[C@H](NC(=O)c2cnc(-c3cnn4cc(C#N)cnc34)cc2NC(C)C)CC1 [Example 89, N-((1r,4r)-4-acetamidocyclohexyl)-6-(6-cyanopyrazolo[1,5-a]pyrimidin-3-yl)-4-(isopropylamino)nicotinamide]
Papp at 2 h, 3 µM (Caco Permeability Assay): < 1.5 ×10⁻⁶ cm/s | EC50 ([1]; Homo sapiens): 2960 nM

CC(C)(F)CNc1cc(-c2cnn3cc(C#N)cnc23)ncc1C(=O)NC[C@@H](F)C(C)(C)O [Example 91, (R)-6-(6-cyanopyrazolo[1,5-a]pyrimidin-3-yl)-4-((2-fluoro-2-methylpropyl)amino)-N-(2-fluoro-3-hydroxy-3-methylbutyl)nicotinamide]
Papp at 2 h, 3 µM (Caco Permeability Assay): 5 ×10⁻⁶ cm/s | EC50 ([1]; Homo sapiens): 2970 nM

CC(C)(O)[C@H](F)CNC(=O)c1cnc(-c2cnn3cc(C#N)cnc23)cc1NC1CCC1 [Example 96, (R)-6-(6-cyanopyrazolo[1,5-a]pyrimidin-3-yl)-4-(cyclobutylamino)-N-(2-fluoro-3-hydroxy-3-methylbutyl)nicotinamide]
Papp at 2 h, 3 µM (Caco Permeability Assay): 8.3 ×10⁻⁶ cm/s | EC50 ([1]; Homo sapiens): 270 nM

CC(C)(O)[C@H](F)CNC(=O)c1cnc(-c2cnn3cc(C#N)cnc23)cc1NC1CCC(F)(F)C1O (stereo partly drawn) [Example 107, 6-(6-cyanopyrazolo[1,5-a]pyrimidin-3-yl)-4-((3,3-difluoro-2-hydroxycyclopentyl)amino)-N—((R)-2-fluoro-3-hydroxy-3-methylbutyl)nicotinamide]
Papp at 2 h, 3 µM (Caco Permeability Assay): < 1.5 ×10⁻⁶ cm/s | EC50 ([1]; Homo sapiens): 430 nM

CC(F)(F)Cn1ccc(Nc2cc(-c3cnc4cc(C#N)cnn34)ncc2C(=O)NC[C@@H](F)C(C)(C)O)n1 [Example 268, (R)-6-(7-cyanoimidazo[1,2-b]pyridazin-3-yl)-4-((1-(2,2-difluoropropyl)-1H-pyrazol-3-yl)amino)-N-(2-fluoro-3-hydroxy-3-methylbutyl)nicotinamide]
IC50 (IRAK4): 3 nM | EC50 ([1]; Homo sapiens): 960 nM

CC(F)(F)Cn1cc(Nc2cc(-c3cnc4cc(C#N)cnn34)ncc2C(=O)NC[C@@H](F)C(C)(C)F)cn1 [Example 269, (R)-6-(7-cyanoimidazo[1,2-b]pyridazin-3-yl)-N-(2,3-difluoro-3-methylbutyl)-4-((1-(2,2-difluoropropyl)-1H-pyrazol-4-yl)amino)nicotinamide]
IC50 (IRAK4): 2 nM | EC50 ([1]; Homo sapiens): 560 nM

Cn1cc(Nc2cc(-c3cnc4cc(Cl)cnn34)ncc2C(=O)NC[C@@H](F)C(C)(C)O)cn1 [Example 271, (R)-6-(7-chloroimidazo[1,2-b]pyridazin-3-yl)-N-(2-fluoro-3-hydroxy-3-methylbutyl)-4-((1-methyl-1H-pyrazol-4-yl)amino)nicotinamide]
IC50 (IRAK4): 4 nM | EC50 ([1]; Homo sapiens): 170 nM

CC(C)(O)[C@H](F)CNC(=O)c1cnc(-c2cnc3cc(C#N)cnn23)cc1Nc1cnn(C(F)F)c1 [Example 273, (R)-6-(7-cyanoimidazo[1,2-b]pyridazin-3-yl)-4-((1-(difluoromethyl)-1H-pyrazol-4-yl)amino)-N-(2-fluoro-3-hydroxy-3-methylbutyl)nicotinamide]
IC50 (IRAK4): 7 nM | EC50 ([1]; Homo sapiens): 380 nM

Cn1cc(Nc2cc(-c3cnc4cc(C#N)cnn34)ncc2C(=O)NC[C@@H](F)C(C)(C)O)cn1 [Example 274, (R)-6-(7-cyanoimidazo[1,2-b]pyridazin-3-yl)-N-(2-fluoro-3-hydroxy-3-methylbutyl)-4-((1-methyl-1H-pyrazol-4-yl)amino)nicotinamide]
IC50 (IRAK4): 9 nM | EC50 ([1]; Homo sapiens): 590 nM

CC(C)(O)[C@H](F)CNC(=O)c1cnc(-c2cnc3cc(Cl)cnn23)cc1Nc1cnn(CC(F)(F)F)c1 [Example 275, (R)-6-(7-chloroimidazo[1,2-b]pyridazin-3-yl)-N-(2-fluoro-3-hydroxy-3-methylbutyl)-4-((1-(2,2,2-trifluoroethyl)-1H-pyrazol-4-yl)amino)nicotinamide]
IC50 (IRAK4): 1 nM | EC50 ([1]; Homo sapiens): 440 nM

CC(C)(O)[C@H](F)CNC(=O)c1cnc(-c2cnc3cc(C#N)cnn23)cc1Nc1cnn(CC(F)(F)F)c1 [Example 276, (R)-6-(7-cyanoimidazo[1,2-b]pyridazin-3-yl)-N-(2-fluoro-3-hydroxy-3-methylbutyl)-4-((1-(2,2,2-trifluoroethyl)-1H-pyrazol-4-yl)amino)nicotinamide]
IC50 (IRAK4): 2 nM | EC50 ([1]; Homo sapiens): 80 nM

CC(C)(F)Cn1cc(Nc2cc(-c3cnc4cc(C#N)cnn34)ncc2C(=O)NC[C@@H](F)C(C)(C)F)cn1 [Example 282, (R)-6-(7-cyanoimidazo[1,2-b]pyridazin-3-yl)-N-(2,3-difluoro-3-methylbutyl)-4-((1-(2-fluoro-2-methylpropyl)-1H-pyrazol-4-yl)amino)nicotinamide]
IC50 (IRAK4): 2 nM | EC50 ([1]; Homo sapiens): 710 nM

CC(C)(O)[C@H](F)CNC(=O)c1cnc(-c2cnc3cc(Cl)cnn23)cc1Nc1cnn(CCCF)c1 [Example 283, (R)-6-(7-chloroimidazo[1,2-b]pyridazin-3-yl)-N-(2-fluoro-3-hydroxy-3-methylbutyl)-4-((1-(3-fluoropropyl)-1H-pyrazol-4-yl)amino)nicotinamide]
IC50 (IRAK4): 2 nM | EC50 ([1]; Homo sapiens): 340 nM

CC(C)(O)[C@H](F)CNC(=O)c1cnc(-c2cnc3cc(Cl)cnn23)cc1Nc1cnn(C2CCC2)c1 [Example 285, (R)-6-(7-chloroimidazo[1,2-b]pyridazin-3-yl)-4-((1-cyclobutyl-1H-pyrazol-4-yl)amino)-N-(2-fluoro-3-hydroxy-3-methylbutyl)nicotinamide]
IC50 (IRAK4): 3 nM | EC50 ([1]; Homo sapiens): 370 nM

CC(C)(O)[C@H](F)CNC(=O)c1cnc(-c2cnc3cc(C#N)cnn23)cc1N[C@@H]1CCN(c2ncc(F)cn2)C1 [Example 288, 6-(7-cyanoimidazo[1,2-b]pyridazin-3-yl)-N—((R)-2-fluoro-3-hydroxy-3-methylbutyl)-4-(((R)-1-(5-fluoropyrimidin-2-yl)pyrrolidin-3-yl)amino)nicotinamide]
IC50 (IRAK4): 9 nM | EC50 ([1]; Homo sapiens): 390 nM
